PubChem BioAssay AID216 (DTP/NCI, 2004)
Where “and” joins values, the source holds several entries; their conditions need not be identical. Equal entries are not always repeated. Toxic doses and inconclusive results are not listed.

Test system: BDF1 mice, P288 leukemia ip, survival T/C
Experiment: NCI In Vivo Anticancer Drug Screen. Data for tumor model P288 Lymphocytic Leukemia (intraperitoneal) in B6D2F1 (BDF1) mice
Conditions: endpoint: survival time, mean or median, higher = longer survival
Experimental: The antitumor activity of compounds was measured in mice bearing transplantable tumors. Survival or tumor size were measured and the results are expressed as the measurement made in the treated group (T) divided by the measurement made in the vehicle treated control group (C). The tumor model used in this assay is P288 Lymphocytic Leukemia (intraperitoneal) in B6D2F1 (BDF1) mice

[1] = dose: 10.0 mg/kg/injection, schedule: Q01DX010 (ip), vehicle: saline
[2] = dose: 20.0 mg/kg/injection, schedule: Q01DX010 (ip), vehicle: saline
[3] = dose: 40.0 mg/kg/injection, schedule: Q01DX010 (ip), vehicle: saline
[4] = dose: 80.0 mg/kg/injection, schedule: Q01DX010 (ip), vehicle: saline
[5] = dose: 100.0 mg/kg/injection, schedule: Q01DX Z (ip), vehicle: other
[6] = dose: 200.0 mg/kg/injection, schedule: Q01DX Z (ip), vehicle: other
[7] = dose: 25.0 mg/kg/injection, schedule: Q01DX010 (ip), vehicle: saline
[8] = dose: 50.0 mg/kg/injection, schedule: Q01DX010 (ip), vehicle: saline
[9] = dose: 200.0 mg/kg/injection, schedule: Q01DX010 (ip), vehicle: saline

O=P1(N(CCCl)CCCl)NCCCO1 (stereo not given)
T/C (dose: 11.3 mg/kg/injection, schedule: Q01DX010 (ip), vehicle: saline): 119 % of control
T/C (dose: 12.5 mg/kg/injection, schedule: Q01DX Z (ip), vehicle: saline): 102 % of control and 106 % of control
T/C (dose: 25.0 mg/kg/injection, schedule: Q01DX Z (ip), vehicle: saline): 113 % of control and 116 % of control
T/C (dose: 45.0 mg/kg/injection, schedule: Q01DX010 (ip), vehicle: saline): 150 % of control and 198 % of control
T/C (dose: 50.0 mg/kg/injection, schedule: Q01DX Z (ip), vehicle: saline): 112 % of control and 113 % of control
T/C (dose: 62.5 mg/kg/injection, schedule: Q01DX Z (ip), vehicle: saline): 124 % of control
T/C (dose: 90.0 mg/kg/injection, schedule: Q01DX010 (ip), vehicle: saline): 158 % of control
T/C (dose: 100.0 mg/kg/injection, schedule: Q01DX Z (ip), vehicle: saline): 152 % of control
T/C (dose: 125.0 mg/kg/injection, schedule: Q01DX Z (ip), vehicle: saline): 113 % of control
T/C (dose: 180.0 mg/kg/injection, schedule: Q01DX010 (ip), vehicle: saline): 91 % of control
T/C (dose: 200.0 mg/kg/injection, schedule: Q01DX Z (ip), vehicle: saline): 86 % of control and 95 % of control

CC(=O)NC1=C(N2CC2)C(=O)C(NC(C)=O)=C(N2CC2)C1=O
T/C (dose: 0.25 mg/kg/injection, schedule: Q01DX010 (ip), vehicle: saline): 105 % of control
T/C (dose: 0.5 mg/kg/injection, schedule: Q01DX010 (ip), vehicle: saline): 166 % of control
T/C (dose: 1.0 mg/kg/injection, schedule: Q01DX010 (ip), vehicle: saline): 222 % of control
T/C (dose: 2.0 mg/kg/injection, schedule: Q01DX010 (ip), vehicle: saline): 111 % of control
T/C (dose: 125.0 micrograms/kg/injection, schedule: Q01DX010 (ip), vehicle: saline): 105 % of control
T/C (dose: 250.0 micrograms/kg/injection, schedule: Q01DX010 (ip), vehicle: saline): 100 % of control
T/C (dose: 500.0 micrograms/kg/injection, schedule: Q01DX010 (ip), vehicle: saline): 100 % of control
T/C (dose: 1000.0 micrograms/kg/injection, schedule: Q01DX010 (ip), vehicle: saline): 122 % of control

c1ccc(CNc2ncnc3[nH]ncc23)cc1
T/C (dose: 1.95 mg/kg/injection, schedule: Q01DX Z (ip), vehicle: carboxymethylcellulose (CMC)): 91 % of control
T/C (dose: 3.9 mg/kg/injection, schedule: Q01DX Z (ip), vehicle: carboxymethylcellulose (CMC)): 97 % of control
T/C (dose: 7.8 mg/kg/injection, schedule: Q01DX Z (ip), vehicle: carboxymethylcellulose (CMC)): 90 % of control
T/C (dose: 8.0 mg/kg/injection, schedule: Q01DX010 (ip), vehicle: saline): 121 % of control and 93 % of control
T/C (dose: 16.0 mg/kg/injection, schedule: Q01DX010 (ip), vehicle: saline): 112 % of control and 114 % of control
T/C (dose: 32.0 mg/kg/injection, schedule: Q01DX010 (ip), vehicle: saline): 118 % of control

N[C@@H](Cc1ccc(N(CCCl)CCCl)cc1)C(=O)O
T/C (dose: 0.62 mg/kg/injection, schedule: Q01DX Z (ip), vehicle: saline): 151 % of control
T/C (dose: 1.25 mg/kg/injection, schedule: Q01DX Z (ip), vehicle: saline): 181 % of control and 196 % of control
T/C (dose: 2.5 mg/kg/injection, schedule: Q01DX Z (ip), vehicle: saline): 172 % of control
T/C (dose: 5.0 mg/kg/injection, schedule: Q01DX Z (ip), vehicle: saline): 207 % of control
T/C (dose: 10.0 mg/kg/injection, schedule: Q01DX Z (ip), vehicle: saline): 108 % of control and 113 % of control

Cn1c(N)nc2nc[nH]c2c1=S
T/C (dose: 3.1 mg/kg/injection, schedule: Q01DX Z (ip), vehicle: carboxymethylcellulose (CMC)): 90 % of control
T/C [1]: 100 % of control
T/C [2]: 100 % of control
T/C [3]: 100 % of control
T/C [4]: 106 % of control

Nc1nc2n[nH]nc2c(=O)[nH]1
T/C (dose: 12.5 mg/kg/injection, schedule: Q01DX Z (ip), vehicle: other): 111 % of control
T/C (dose: 25.0 mg/kg/injection, schedule: Q01DX010 (ip), vehicle: alkali diluted with saline): 100 % of control
T/C [5]: 152 % of control and 183 % of control
T/C [6]: 195 % of control

C[C@H]1C(=O)O[C@@H]2CCN3CC=C(COC(=O)[C@](C)(O)[C@@]1(C)O)[C@H]23
T/C (dose: 0.99 mg/kg/injection, schedule: Q01DX Z (ip), vehicle: carboxymethylcellulose (CMC)): 97 % of control
T/C (dose: 1.88 mg/kg/injection, schedule: Q01DX Z (ip), vehicle: carboxymethylcellulose (CMC)): 94 % of control
T/C (dose: 3.13 mg/kg/injection, schedule: Q01DX010 (ip), vehicle: saline): 100 % of control
T/C (dose: 3.75 mg/kg/injection, schedule: Q01DX Z (ip), vehicle: carboxymethylcellulose (CMC)): 90 % of control
T/C (dose: 6.25 mg/kg/injection, schedule: Q01DX010 (ip), vehicle: saline): 100 % of control
T/C (dose: 12.5 mg/kg/injection, schedule: Q01DX010 (ip), vehicle: saline): 121 % of control and 87 % of control
T/C [7]: 115 % of control and 100 % of control
T/C [8]: 94 % of control

CC1CCOS(=O)O1 (stereo not given)
T/C [1]: 88 % of control
T/C [2]: 100 % of control
T/C [3]: 100 % of control

O=c1cnn(C2OC(CO)C(O)C2O)c(=O)[nH]1 (stereo not given)
T/C (dose: 15.62 mg/kg/injection, schedule: Q01DX Z (ip), vehicle: water): 101 % of control
T/C (dose: 31.25 mg/kg/injection, schedule: Q01DX Z (ip), vehicle: water): 101 % of control
T/C (dose: 62.5 mg/kg/injection, schedule: Q01DX Z (ip), vehicle: water): 104 % of control
T/C (dose: 125.0 mg/kg/injection, schedule: Q01DX Z (ip), vehicle: water): 113 % of control and 95 % of control
T/C [9]: 111 % of control and 112 % of control
T/C (dose: 250.0 mg/kg/injection, schedule: Q01DX Z (ip), vehicle: water): 103 % of control and 123 % of control
T/C (dose: 400.0 mg/kg/injection, schedule: Q01DX010 (ip), vehicle: saline): 118 % of control
T/C (dose: 500.0 mg/kg/injection, schedule: Q01DX Z (ip), vehicle: water): 94 % of control
T/C (dose: 800.0 mg/kg/injection, schedule: Q01DX010 (ip), vehicle: saline): 122 % of control
T/C (dose: 1000.0 mg/kg/injection, schedule: Q01DX Z (ip), vehicle: water): 103 % of control
T/C (dose: 1600.0 mg/kg/injection, schedule: Q01DX010 (ip), vehicle: saline): 112 % of control and 94 % of control

NC(CCSCc1ccc(N(CCCl)CCCl)cc1)C(=O)O (stereo not given)
T/C (dose: 4.5 mg/kg/injection, schedule: Q01DX010 (ip), vehicle: saline): 88 % of control
T/C (dose: 9.0 mg/kg/injection, schedule: Q01DX010 (ip), vehicle: saline): 100 % of control
T/C (dose: 18.0 mg/kg/injection, schedule: Q01DX010 (ip), vehicle: saline): 88 % of control
T/C (dose: 36.0 mg/kg/injection, schedule: Q01DX010 (ip), vehicle: saline): 100 % of control
T/C (dose: 54.0 mg/kg/injection, schedule: Q01DX010 (ip), vehicle: saline): 161 % of control
T/C [4]: 172 % of control

Cc1n[nH]c(=O)[nH]c1=O
T/C (dose: 50.0 mg/kg/injection, schedule: Q01DX Z (ip), vehicle: other): 104 % of control
T/C [5]: 101 % of control
T/C [6]: 101 % of control and 110 % of control
T/C (dose: 400.0 mg/kg/injection, schedule: Q01DX Z (ip), vehicle: other): 101 % of control and 110 % of control
T/C (dose: 800.0 mg/kg/injection, schedule: Q01DX Z (ip), vehicle: other): 97 % of control

CSc1ncnc2nc[nH]c12
T/C (dose: 6.25 mg/kg/injection, schedule: Q01DX Z (ip), vehicle: carboxymethylcellulose (CMC)): 105 % of control
T/C (dose: 12.5 mg/kg/injection, schedule: Q01DX Z (ip), vehicle: carboxymethylcellulose (CMC)): 101 % of control
T/C [7]: 90 % of control
T/C (dose: 25.0 mg/kg/injection, schedule: Q01DX Z (ip), vehicle: carboxymethylcellulose (CMC)): 101 % of control
T/C [8]: 86 % of control and 90 % of control
T/C (dose: 50.0 mg/kg/injection, schedule: Q01DX Z (ip), vehicle: carboxymethylcellulose (CMC)): 113 % of control and 88 % of control
T/C (dose: 100.0 mg/kg/injection, schedule: Q01DX010 (ip), vehicle: saline): 100 % of control
T/C [9]: 90 % of control and 100 % of control
